This assay addresses T1, human mAChR M4 (Homo sapiens, UniProt P08173).
T1 construct: expressed in transfected cells
T1 sequence (P08173 1-479): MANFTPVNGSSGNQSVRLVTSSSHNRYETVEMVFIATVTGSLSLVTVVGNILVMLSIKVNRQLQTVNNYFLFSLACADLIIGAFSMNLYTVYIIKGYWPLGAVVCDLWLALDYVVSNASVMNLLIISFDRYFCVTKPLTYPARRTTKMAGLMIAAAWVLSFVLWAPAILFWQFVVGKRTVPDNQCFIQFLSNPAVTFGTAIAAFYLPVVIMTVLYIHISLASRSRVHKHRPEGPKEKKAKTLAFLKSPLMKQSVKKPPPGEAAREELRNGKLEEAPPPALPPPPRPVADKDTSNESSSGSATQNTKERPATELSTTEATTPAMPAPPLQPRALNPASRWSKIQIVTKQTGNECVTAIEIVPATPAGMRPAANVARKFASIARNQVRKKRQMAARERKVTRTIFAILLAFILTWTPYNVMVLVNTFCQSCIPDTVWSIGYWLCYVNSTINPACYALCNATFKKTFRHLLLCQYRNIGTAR
The assay can be described thus: mAChR M4 cell-based functional assay (calcium mobilization, CHO-K1 hM4-Gqi5 cells). As to conditions: for Emax at 30 µM: CHO-K1, % ACh maximum at 30 μM, human M4; for EC50: positive allosteric modulator activity, increase in the EC20 acetylcholine response, CHO-K1 hM4-Gqi5 cells, read-out: Human M4 EC50; for Emax: CHO-K1. A digest of the protocol: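 CHO-K1 cells stably expressing human M4 with chimeric Gqi5, loaded with Fluo-4 AM; compounds given as 11-point 1:3 curves and calcium flux read on FDSS at 1 Hz. Acetylcholine EC20 added at 144 s, EC80 at 230 s; agonist, PAM (EC20 potentiation) and antagonist (EC80 inhibition) EC50/Emax from four-parameter fits.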

In the case of `COc1cc(-c2cnc3c(c2)CN(c2nnc(C#N)c(C)c2C)CC3)ccn1` [compound 76, 6-[3-(2-methoxy-4-pyridyl)-7,8-dihydro-5H-1,6-naphthyridin-6-yl]-4,5-dimethyl-pyridazine-3-carbonitrile], the Emax at 30 µM came out at 76% and the EC50 amounted to 1490 nM.
On to `Cc1cnccc1-c1cnc2c(c1)CN(c1nnc(C#N)c(C)c1C)CC2` [compound 77, 4,5-dimethyl-6-[3-(3-methyl-4-pyridyl)-7,8-dihydro-5H-1,6-naphthyridin-6-yl]pyridazine-3-carbonitrile], for which the Emax at 30 µM was determined as 89% and the EC50 was 198 nM.
Take `Cc1c(C#N)nnc(N2CCc3ncc(Nc4ncc(F)cc4F)cc3C2)c1C` [compound 78, 6-[3-[(3,5-difluoro-2-pyridyl)amino]-7,8-dihydro-5H-1,6-naphthyridin-6-yl]-4,5-dimethyl-pyridazine-3-carbonitrile]: the Emax at 30 µM came out at 65% and the EC50 stood at 324 nM.
With `Cc1ccc(Nc2cnc3c(c2)CN(c2nnc(C#N)c(C)c2C)CC3)c(F)n1` [compound 79, 6-[3-[(2-fluoro-6-methyl-3-pyridyl)amino]-7,8-dihydro-5H-1,6-naphthyridin-6-yl]-4,5-dimethyl-pyridazine-3-carbonitrile], the Emax at 30 µM is 82% and the EC50 is 232 nM.
For `Cc1c(C#N)nnc(N2CCc3ncc(Nc4ncccc4F)cc3C2)c1C` [compound 80, 6-[3-[(3-fluoro-2-pyridyl)amino]-7,8-dihydro-5H-1,6-naphthyridin-6-yl]-4,5-dimethyl-pyridazine-3-carbonitrile] the same measures were 72% and 300 nM.
As to `Cc1c(C#N)nnc(N2CCc3ncc(Nc4nc(Cl)ncc4F)cc3C2)c1C` [compound 81, 6-[3-[(2-chloro-5-fluoro-pyrimidin-4-yl)amino]-7,8-dihydro-5H-1,6-naphthyridin-6-yl]-4,5-dimethyl-pyridazine-3-carbonitrile], the Emax at 30 µM was 78% and the EC50 came out at 539 nM.
For `Cc1c(C#N)nnc(N2CCc3ncc(Nc4cc(Cl)cnc4F)cc3C2)c1C` [compound 82, 6-[3-[(5-chloro-2-fluoro-3-pyridyl)amino]-7,8-dihydro-5H-1,6-naphthyridin-6-yl]-4,5-dimethyl-pyridazine-3-carbonitrile] the same measures were 82% and 157 nM.
`Cc1nc(Cl)c(C)c(N2CCc3ncccc3C2)n1` [compound 83, 6-(6-chloro-2,5-dimethyl-pyrimidin-4-yl)-7,8-dihydro-5H-1,6-naphthyridine]: the Emax stood at 77% and the 50% effective concentration (EC50) turned out to be 1540 nM.
For the compound `Cc1c(Cl)nc(C2CC2)nc1N1CCc2ncccc2C1` [compound 84, 6-(6-chloro-2-cyclopropyl-5-methyl-pyrimidin-4-yl)-7,8-dihydro-5H-1,6-naphthyridine], the Emax is 71% and the EC50 is 2240 nM.
With `Cc1nc(Cl)c(C)c(N2CCc3ncc(Nc4ccccc4F)cc3C2)n1` [compound 85, 6-(6-chloro-2,5-dimethyl-pyrimidin-4-yl)-N-(2-fluorophenyl)-7,8-dihydro-5H-1,6-naphthyridin-3-amine], the Emax at 30 µM was determined as 86% and the EC50 is 361 nM.
For the compound `Cc1nc(Cl)c(C)c(N2CCc3ncc(Nc4cccc(F)c4F)cc3C2)n1` [compound 86, 6-(6-chloro-2,5-dimethyl-pyrimidin-4-yl)-N-(2,3-difluorophenyl)-7,8-dihydro-5H-1,6-naphthyridin-3-amine], the Emax at 30 µM amounted to 84% and the EC50 was determined as 654 nM.
Take `Cc1nc(Cl)c(C)c(N2CCc3ncc(Nc4ccc(F)cc4F)cc3C2)n1` [compound 87, 6-(6-chloro-2,5-dimethyl-pyrimidin-4-yl)-N-(2,4-difluorophenyl)-7,8-dihydro-5H-1,6-naphthyridin-3-amine]: the Emax at 30 µM was found to be 82% and the EC50 turned out to be 815 nM.
Turning to `Cc1nc(Cl)c(C)c(N2CCc3ncc(Nc4cc(F)ccc4F)cc3C2)n1` [compound 88, 6-(6-chloro-2,5-dimethyl-pyrimidin-4-yl)-N-(2,5-difluorophenyl)-7,8-dihydro-5H-1,6-naphthyridin-3-amine], the Emax at 30 µM is 86% and the EC50 was 731 nM.
Turning to `Cc1nc(Cl)c(C)c(N2CCc3ncc(Nc4c(F)cccc4F)cc3C2)n1` [compound 89, 6-(6-chloro-2,5-dimethyl-pyrimidin-4-yl)-N-(2,6-difluorophenyl)-7,8-dihydro-5H-1,6-naphthyridin-3-amine], the Emax at 30 µM came to 80% and the EC50 was 716 nM.
As to `Cc1c(Cl)nc(C2CC2)nc1N1CCc2ncc(Nc3ccccc3F)cc2C1` [compound 90, 6-(6-chloro-2-cyclopropyl-5-methyl-pyrimidin-4-yl)-N-(2-fluorophenyl)-7,8-dihydro-5H-1,6-naphthyridin-3-amine], the Emax at 30 µM worked out at 72% and the EC50 was 7600 nM.
The matching figures for `Cc1c(Cl)nc(C2CC2)nc1N1CCc2ncc(Nc3cccc(F)c3F)cc2C1` [compound 91, 6-(6-chloro-2-cyclopropyl-5-methyl-pyrimidin-4-yl)-N-(2,3-difluorophenyl)-7,8-dihydro-5H-1,6-naphthyridin-3-amine]: 67% and 5570 nM.
Turning to `Cc1nc(Cl)c(C)c(N2CCc3ncc(-c4cnn(C)c4)cc3C2)n1` [compound 92, 6-(6-chloro-2,5-dimethyl-pyrimidin-4-yl)-3-(1-methylpyrazol-4-yl)-7,8-dihydro-5H-1,6-naphthyridine], the Emax at 30 µM amounted to 82% and the EC50 was 218 nM.
For `Cc1cc(-c2cnc3c(c2)CN(c2nc(C)nc(Cl)c2C)CC3)ccn1` [compound 93, 6-(6-chloro-2,5-dimethyl-pyrimidin-4-yl)-3-(2-methyl-4-pyridyl)-7,8-dihydro-5H-1,6-naphthyridine] the same measures were 95% and 123 nM.
The matching figures for `Cc1nc(Cl)c(C)c(N2CCc3ncc(-c4cncs4)cc3C2)n1` [compound 94, 5-[6-(6-chloro-2,5-dimethyl-pyrimidin-4-yl)-7,8-dihydro-5H-1,6-naphthyridin-3-yl]thiazole]: 91% and 96.9 nM.
For `Cc1cc(C#N)cnc1N1CCc2ncc(-c3cncs3)cc2C1` [compound 95, 5-methyl-6-(3-thiazol-5-yl-7,8-dihydro-5H-1,6-naphthyridin-6-yl)pyridine-3-carbonitrile] the same measures were 98% and 84.1 nM.
For `Cc1cc(C#N)cnc1N1CCc2ncc(-c3cnn(C4CC4)c3)cc2C1` [compound 96, 6-[3-(1-cyclopropylpyrazol-4-yl)-7,8-dihydro-5H-1,6-naphthyridin-6-yl]-5-methyl-pyridine-3-carbonitrile], the Emax at 30 µM turned out to be 95% and the EC50 was 302 nM.
Turning to `Cc1cc(C#N)cnc1N1CCc2ncc(-c3cnn(Cc4ccccc4)c3)cc2C1` [compound 97, 6-[3-(1-benzylpyrazol-4-yl)-7,8-dihydro-5H-1,6-naphthyridin-6-yl]-5-methyl-pyridine-3-carbonitrile], the Emax at 30 µM is 81% and the EC50 was found to be 680 nM.
